According to US20090227671A1, “Prevention and treatment of atherosclerosis with lithospermate B” (Industry-Academic Cooperation Foundation, priority 2005, published 2009):

Legend:
Assay type in all cases: cell-based, Sprague-Dawley rats
[1] = tested on: vascular smooth muscle cells; assay: VSMC proliferation induced by PDGF-BB (LDH and MTT assays); details: data not shown
Source text: Vascular smooth muscle cells ('VSMC' hereinafter) were separated from thoracic aorta of a Sprague-Dawley weighted about 100-150 g by using collagenase digestion method and then cultured them according to the method disclosed in previous studies [[…], et al. Role of p44/p42 MAP kinase in the age-dependent increase in vascular smooth muscle cell proliferation and neointimal formation. Arterioscler Thromb Vasc Biol. Feb. 1 2003; 23(2):204-210.; Hamaguchi A, Kim S, Izumi Y, et al. Contribution of extracellular signal-regulated kinase to angiotensin II-induced transforming growth factor-beta1 expression in vascular smooth muscle cells. Hypertension. July 1999; 34(1):126-131]. […] The VSMC was treated in a culture medium not containing serum for 24 hrs prior to treatment with PDGF-BB, and the reaction according to the presence or absence of PDGF-BB was analyzed after pretreating with LAB or other reagents. […] The cells were then washed twice with PBS, lysed by using 0.5% Triton-X100, and then the activity of lactate dehydronase (LDH) was measured by using CytoTox-ONETM assay kit (Promega, Madison, Wis., USA) with fluorescence at […]. […]

[2] = tested on: vascular smooth muscle cells; assay: VSMC migration induced by PDGF-BB (modified Boyden chamber); details: PDGF-BB 10 ng/mL as chemoattractant, 16 hrs
Procedure: The migration of VSMC with 8 μm of pores was measured by using modified Boyden chamber method [Brown C, Pan X, Hassid A. Nitric oxide and C-type atrial natriuretic peptide stimulate primary aortic smooth muscle cell migration via a cGMP-dependent mechanism: relationship to microfilament dissociation and altered cell morphology. Circ Res. Apr. 2 1999; 84(6):655-667], which utilizes collagen-coated transwell tissue culture inserts consisting of polycarbonate membrane. 3.0×10^6 cells/mL of the above vascular smooth muscle cells were allowed to float in a culture medium without serum, treated with LAB with various concentrations and then cultured at 37° C. for 30 min. Then, the cells were treated with either 0.5 mL DMEM without serum or 0.5 mL DMEM without serum along with PDGF-BB 10 ng/mL and then placed in the lower part of a chamber. 100 μL of the folating materials of the above cells (final 3.0×10^5 cells/well) was added to the upper part of the chamber and cultured at 37° C. for 16 hrs. The cells were then fixed, dyed with hematoxylin, and filters were dried and developed.
It is known that […] plays an important role in proliferation of VSMC as well as development of atherosclerosis. To investigate whether LAB decreases the migration of VSMC induced by PDGF-BB, an experiment was performed as follows by using the aforementioned modified Boyden chamber method.

[3] = tested on: intracellular reactive oxygen species; assay: Intracellular reactive oxygen species in VSMC (DCF fluorescence); details: PDGF-BB 10 ng/mL vs control
Procedure: The amount of reactive oxygen species in cells was measured as described in the previous report [Hamaguchi A, Kim S, Izumi Y, et al. Contribution of extracellular signal-regulated kinase to angiotensin II-induced transforming growth factor-beta1 expression in vascular smooth muscle cells. Hypertension. July 1999; 34(1):126-131]. VSMC was cultured in a culture medium without serum for 24 hrs to stop cell proliferation and then pretreated with LAB with various concentrations of 1, 5, 10, 20, 30 μM for 1 hr. The cells were treated with either 10 ng/mL of PDGF-BB for 10 min or with 100 μM H2O2 for 1 min and then cultured in the presence of 5-(and-6)-chloromethyl-2′,7′-dichlorohydrofluorescein diacetate(CM-H2DCF-DA: Molecular Probes Inc., Eurogene, Oreg., USA) in the dark room for 10 min and cultured cells and generation of reactive oxygen species were observed by using fluorescent microscope.
First, the amount of intracellular reactive oxygen species generated by PDGF-BB was measured by using peroxide-sensitive fluorophore DCF. As shown in FIG. 3A (B-1), the amount of intracellular reactive oxygen species generated by PDGF-BB evaluated with DCF fluorescence was 2.7 times greater. […] In this experiment, LAB was treated with PDGF-BB for 10 min. When LAB was pretreated, the amount of DCF fluorescence was decreased as compared to when it was treated only with PDGF-BB [FIG. 3A(A)]. […] Further, LAB decreased the activity of hydrogen peroxide, which increases the generation of intracellular reactive oxygen species, in proportion to its concentration (FIG. 3A(C)).

ERK1/2 = assay: Western blot of ERK1/2 phosphorylation in VSMC induced by PDGF-BB
Procedure: (§1) VSMC was washed with PBS and then dissolved in lysis buffer (25 mM Tris HCl, pH 7.4, 25 mM NaCl, 25 mM NaF, 25 mM sodium pyrophosphate, 1 mM sodium vanadate, 2.5 mM EDTA, 2.5 mM EGTA, 0.05% (wt/vol) Triton X-100, 0.5% (wt/vol) SDS, 0.5% (wt/vol) deoxycholate, 0.5% (wt/vol) Nonidet P-40, […], and 1 mM PMSF). The cells were collected and centrifuged at 13,000 rpm for 15 min and the protein concentration of the resulting supernatant was measured by Bradford assay. The proteins were denatured and were subjected to SDS-PAGE and then blotted onto nitrocellulose membranes. The membranes were placed in 5% (w/v) non-fat dry milk in TBS with 0.1% Tween20 (TBS-T) and then placed at room temperature for 3 hrs. The blots were placed at 4° C. along with anti-ERK1/2 or anti-Akt antibodies (Cell signaling Technologh, Berely. Mass., USA) for 16 hrs. The membranes were washed 4 times with TBS-T, added with anti-rabbit IgG antibody conjugated with horseradish peroxidase (1:2,000 diluent) and then placed at room temperature for 1 hr. The immunoreactive bands detected by ECL reagents were developed by Hyperfilm-ECL (Amersham Life Science, Little Chalfont, UK). The bands showing positive responses were quantitated by densitometry and then compared with that of control.
(§2) In FIG. 1B, it is shown that both U0126 (20 μM) and LY294002 (40 μM) inhibited activities of LDH and MTT induced by PDGF-BB. As a way to investigate the signal transduction pathway involved in VSMC proliferation induced by PDGF-BB, an experiment was conducted to examine whether PDGF-BB activates a relatively lower signal transduction pathway such as ERK1/2 and Akt.

Akt = assay: Western blot of Akt phosphorylation in VSMC induced by PDGF-BB; details: for decrease of Akt phosphorylation: 30 μM LAB, 20 mM NAC, 40 μM LY294002, 1 h, then PDGF-BB 10 min, FIG. 4C
Procedure: as §1, §2

Oc1ccc(-c2nc(-c3ccncc3)c(-c3ccc(F)cc3)[nH]2)cc1 [SB202190, reference compound]
inhibitory activity against VSMC proliferation induced by PDGF-BB [1]: no distinct inhibitory activity

PDGF-BB: platelet-derived growth factor (Sigma-Aldrich), stimulus of VSMC proliferation and migration [reference compound]
increase of VSMC migration [2]: about 60%
amount of intracellular reactive oxygen species (DCF fluorescence), increase [3]: 2.7 times
increase of ERK1/2 activity (ERK1/2; treated with PDGF-BB 10 ng/mL, FIG. 5A): 11 folds
increase of Akt activity (Akt; treated with PDGF-BB 10 ng/mL, FIG. 4A): 7 folds

CC(=O)N[C@@H](CS)C(=O)O [NAC, N-acetylcysteine, reference compound]
decrease of ERK1/2 phosphorylation (ERK1/2; 30 μM LAB, 20 mM NAC, 1 h, then PDGF-BB 10 min, FIG. 5C): 0.6 fold
decrease of Akt phosphorylation (Akt): 3.4 folds

O=c1cc(N2CCOCC2)oc2c(-c3ccccc3)cccc12 [LY294002, (2-(4-morpholinyl)-8-phenyl)-4H-1-benzopyran-4-one, reference compound]
decrease of Akt phosphorylation (Akt): 3.5 folds
